From patent US5225182A, “Vectored drug delivery system using a cephaloplastin linking agent and a methed of using the system” (priority 1991, dated 1993)

Experiments:
bones = assay: Progesterone delivery to bones (APAAP staining); type: in vivo, mice
Description: Thirty-nine mg of finely divided progesterone were added to 2.4 ml of linking agent containing Composition C and injected into mice (see Example XII). The drug was examined for its presence in bones after 2days by taking sections of bone from ribs and staining the sections with monoclonal antibodies to progesterone using the […] labeling system as described by Cordell et al. in J. Histochem. Cytochem. 32:219 (1984).

[1] = Drug release in vitro by column elution method; type: physicochemical; conditions: after 14 hrs, 37° C, saline 0.4 ml/min
Description: Using the conjugate prepared in Example XXVI, the drug release was estimated in vitro by the column elution method described below.
2.0 ml of deionized water was added to 11.6 mg of dry (lyophilized) conjugate as prepared in Example XXVI. The slurry was pipetted into 140 ×7 mm glass columns. The ends of each of the columns were filled with chromatographic caps packed with glass wool. The ends were then attached to threaded zero-volume collectors and connected to 10 mm 1:0 teflon tubing. The columns were placed in a circulating water bath at 37 ° C. Saline was pumped through columns at 0.4 ml/min flow rate with an HPLC pump (ALTEX 110A). Fractions were collected as a function of time at 4° C. and analyzed by uv/vis spectroscopy method. Results: Approximately 20% drug release was found in samples taken after 14 hrs.

L1210 leukemia cells = assay: Effect on in vivo tumor cells (L1210 leukemia); set-up: species or system DBA mice; conditions: 8 mg/kg iv
Description: (§1) All experimental animals were injected intravenously (IV) with 0.5 mg doses of cis-Platinum to a final concentration of […] body weight, maximum volume 0.2 mL/mouse. The above protocol was used in Examples II-VI. In Examples VIII and IX, 8 mg/kg doses were administered intravenously.
10^4 L1210 leukemia cells were transplanted intravenously (iv) into DBA mice. Three days later the animals received 8 mg/kg cis-Platinum in saline or 8 mg/kg cisplatinum-conjugate administered (iv) (3 animals/group)

liver = assay: Liver function tests on blood samples; type: in vivo, mice; conditions: after ten days of treatment
Description: Four groups of six male F1 hybrid mice (C57BL/6X DBA/2) 6-8 weeks old (20-25g body weight) were used for the study. […] Three additional mice were used as normal untreated controls.
In Examples VIII and IX, 8 mg/kg doses were administered intravenously.
The total number of nucleated cells, that is, the total number of total white blood cells, was counted with a Coulter counter and a blood film was prepared simultaneously for lymphocyte-to-neutrophil (L/N) ratio.
Liver function tests were performed on blood samples after ten days of treatment with the solutions (see Example III). Four doses were administered each day.

Colon 38 tumors = assay: Antitumor tests, in vitro; type: cell-based, murine; conditions: Colon 38, in vitro, 21 days
Description: Lewis lung murine tumors of the biological type lung carcinoma were implanted subcutaneously in the group B C57BL/6 mice. Colon 38 of the histological type colon carcinoma was implanted in group C57BL/6. Three mice from group A were implanted with Lewis lung tumors and the remaining three were implanted with colon 38 tumors subcutaneously. Three mice from control group D were implanted with Lewis lung tumors and three with colon 38 tumors.
The antitumor activity of both solutions was tested in vitro. Colon 38 tumors were used for in vitro screening of the antitumor effect. Tumors were place in 10ml solution of each of the agents. The tumors were removed after 21 days of culture growth and examined for weight loss and shrinkage in size.

lung = assay: Biodistribution by gamma camera with technicium Tc-99 m; type: in vivo, mice; conditions: Tc-99 m given 30 min after injection
Description: Four groups of six male F1 hybrid mice (C57BL/6X DBA/2) 6-8 weeks old (20-25g body weight) were used for the study. Group A received unconjugated cis-Platinum; the second group, B, received cis-Platinum conjugated with the organ-specific vectoring reagent macroaggregated albumin (MAA). Group C received cis-Platinum conjugated with colloidal sulfur particles. Group D was injected with MAA alone, with no cis-Platinum conjugated or unconjugated, and served as controls. Three additional mice were used as normal untreated controls.
as §1
Thirty minutes after injecting the mice with either agent, one millicurie of technicium Tc-99 m was injected IV and the mice placed under a gamma camera to trace the cis-Platinum.
Similar patterns of activity were seen when both groups of mice were injected after three days.

K1210 leukemia cells = assay: Effect on mice implanted with leukemia cells; type: in vivo, DBF mice; conditions: 8 mg/kg i.v.
Description: as §1
DBF mice were planted intraperitoneally with 10^4 K1210 leukemia cells. Three days later, 8 mg/kg of cis-Platinum in saline and cis-Platinum conjugate preparation was given intravenously via a tail vein.

Molecule: progesterone
- delivery to the bones (bones; after 2 days, sections of rib bone): effectively delivered to the bones
- retention in bones as an active molecule (bones; mouse, in vivo): up to 21 days
- drug release [1]: Approximately 20%

Molecule: N.N.[Cl-].[Cl-].[Pt+2] [cis-Pt, cis-Platinum (II) Diammine Dichloride]
- Incr. Life Span (ILS) (L1210 leukemia cells): 111%
- Prothrombin clotting time (liver): 16
- SGOT (liver): 120
- SGPT (liver): 112
- Serum bilirubin (liver): 3.8
- Shrinkage (Colon 38 tumors): 41%
- Weight loss (Colon 38 tumors): 63%
- distribution of the radioisotope in organs in the abdomen (lung): even distribution of the radioisotope in all organs in the abdomen
- % ILS (K1210 leukemia cells): 80%
